Results from US20170327556A1, “CARTILAGE-BINDING FUSION PROTEINS” (Merrimack Pharmaceuticals, Inc., priority 2013, published 2017).
“Also recorded” adds a separate entry of the source.

Assays:
[1] = tested on: bovine cartilage explants; test: In vitro joint disease model (IL-1), explanted bovine cartilage: ^35S-sulfate incorporation; format: cell-based; conditions: for cartilage matrix synthesis (^35S-sulfate incorporation): supplied in every medium change for 8 or 12 days, IL-1, final 48 hrs, versus Disease control
Source text: Bovine cartilage explants (3 mm diameter, 1.2 mm thick) are harvested from the femoral patellar groove of 2-4 week old bovine calves. Knee joints are mounted by removing all tissue surrounding the femur, removing the femoral head with a bone saw or hack saw, and clamping in a tissue vice. Joints are aseptically opened, removing the patella, tibia and fibula. Using a 3 mm diameter disposable biopsy punch, approximately 80×3 mm diameter full thickness cartilage cores are punched from the femoral-patellar groove. A sterile knife is used to slice the cores at the cartilage-bone interface. Cores are then inserted into 3 mm diameter holes in a 1.2 mm thick sterile stainless steel plate and sliced flush with the plate using sterile razor blades to remove the excess core length, resulting in 3 mm diameter, 1.2 mm thick cartilage explants with the superficial zone cartilage intact.
Explants are cultured in 96-well plates in 300 μL of medium consisting of low glucose DMEM (1× Gibco 11885-084), Penicillin-Streptomycin (1×, Gibco 15140-122), ascorbic acid (20 μg/mL, Sigma A4403), proline (400 μM, Sigma P5607-256), non-essential amino acids (1×, Sigma M7145), and HEPES (100 mM, Gibco 15630-080). Explants from three animals (n=2-3 per animal) are used in each treatment condition for a total explant number of 8-9 per condition. Medium is changed every 2 days. On days 6 and 10, the medium is supplemented with 5 μCi/mL of ^35S-sodium sulfate (Perkin Elmer NEX041H001MC, 1 mCi).
Timepoints are taken at day 8 and 12: explant tissue is washed four times for 30 min each (2 hr total) in 1 mM unlabeled sodium sulfate in PBS. Each explant is weighed wet and frozen at −20° C. until digestion. Tissue digestion was performed with Proteinase K (Roche cat #3115879001) and each explant is digested in 1 mL 100 μg/mL Proteinase K in 50 mM Tris-HCL, 1 mM Calcium Chloride pH=8.0 buffer at 60° C. overnight. Measurement of sGAG content and DNA content is performed using standard assay methods such as those described in Hoemann, 2004, Methods in Molecular Medicine: Cartilage and Osteoarthritis. Totowa, N.J.: Humana Press Inc.; p. 127-52. ^35S-sulfate content of the digested cartilage explants was quantified by mixing 20 μL of digest with 250 μL of scintillation fluid (Perkin Elmer cat #1200-439) and counting with a WALLAC 1450 MICROBETA TRILUX scintillation counter.
Treatments were given at the following concentrations: wtIGF-1 13.3 nM=100 ng/mL (IGF-1 R&D systems 291-G1); GF-Fus1 (6x-Histidine tagged) 13.3 nM=135 ng/mL; GF-Fus2 (6x-Histidine tagged) 13.3 nM=140 ng/mL; and GF-Fus3 (6x-Histidine tagged)13.3 nM=181 ng/mL. All treatments included IL-1 and were given for either 4 days or the entire culture duration. The outcomes measured were ^35S-sulfate incorporation, DNA content, and sGAG content of plug at endpoint, and sGAG released to media for all media changes. Controls were either no treatment (Healthy) or IL-1 alone at 1 ng/mL (Disease).
FIG. 4 depicts a graph of cartilage matrix loss as measured by the cumulative percentage of total sGAG lost to the culture medium against time (days). Percentage loss is calculated by dividing the cumulative sGAG in the culture medium by the total sGAG present in the medium over the culture period plus the sGAG remaining in the explant at the end of culture. Cartilage matrix loss was reduced by each IGF fusion protein relative to the disease control at a level similar to wild-type IGF. New cartilage matrix synthesis (i.e. sulfated proteoglycan synthesis is measured by ^35S-Sulfate incorporation) during the final 48 hrs of cultures terminated at day 8 and day 12 is shown in FIGS. 5A and 5B, respectively. Cartilage matrix synthesis was increased compared to disease control by all fusion proteins (GF-Fus1, GF-Fus2, and GF-Fus3) and wild-type IGF when the fusion proteins were supplied in every medium change for the entire culture duration of 8 and 12 days (black bars). […]

[2] = target: T1, collagen type II (Homo sapiens, UniProt P02458); test: ELISA binding of fusion proteins to collagen type II coated plates; conditions: 6x-Histidine-tagged proteins, FIG. 2
T1 construct: purchased Chondrex Products, Redmond, Wash
T1 sequence (P02458 182-1241 limits assumed): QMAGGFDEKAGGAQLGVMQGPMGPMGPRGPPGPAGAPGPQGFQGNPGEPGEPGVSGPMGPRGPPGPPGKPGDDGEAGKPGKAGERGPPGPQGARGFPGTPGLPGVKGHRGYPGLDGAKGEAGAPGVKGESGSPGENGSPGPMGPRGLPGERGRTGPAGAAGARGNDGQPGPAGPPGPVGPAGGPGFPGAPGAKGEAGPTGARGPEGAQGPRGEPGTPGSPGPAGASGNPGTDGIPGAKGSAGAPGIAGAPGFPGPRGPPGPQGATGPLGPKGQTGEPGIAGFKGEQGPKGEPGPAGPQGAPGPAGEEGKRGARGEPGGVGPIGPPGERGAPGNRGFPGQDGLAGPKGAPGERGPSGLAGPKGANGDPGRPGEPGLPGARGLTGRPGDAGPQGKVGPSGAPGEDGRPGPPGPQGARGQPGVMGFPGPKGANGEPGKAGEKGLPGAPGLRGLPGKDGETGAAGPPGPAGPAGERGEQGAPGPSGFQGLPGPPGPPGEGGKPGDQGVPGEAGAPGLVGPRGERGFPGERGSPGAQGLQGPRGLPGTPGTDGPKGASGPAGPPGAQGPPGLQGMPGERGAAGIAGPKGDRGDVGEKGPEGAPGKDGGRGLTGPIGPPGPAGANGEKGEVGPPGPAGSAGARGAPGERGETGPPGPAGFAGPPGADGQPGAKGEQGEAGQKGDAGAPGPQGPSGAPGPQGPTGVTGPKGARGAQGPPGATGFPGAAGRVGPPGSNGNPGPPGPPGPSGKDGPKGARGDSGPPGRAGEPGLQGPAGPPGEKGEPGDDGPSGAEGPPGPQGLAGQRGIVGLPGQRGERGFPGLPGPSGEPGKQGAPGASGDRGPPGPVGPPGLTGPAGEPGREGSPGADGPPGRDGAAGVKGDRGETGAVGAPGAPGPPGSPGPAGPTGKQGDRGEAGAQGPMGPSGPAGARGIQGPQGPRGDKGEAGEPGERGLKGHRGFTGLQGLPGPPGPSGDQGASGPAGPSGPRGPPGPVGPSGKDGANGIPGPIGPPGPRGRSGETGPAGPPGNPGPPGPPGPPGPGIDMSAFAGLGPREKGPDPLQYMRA
Procedure: Specificity of proteins to collagen type II may be determined by measuring the ability of the protein to bind the collagen coated on an ELISA plate. Reacti-Bind® 96 well plates are coated overnight at 4° C. with 100 μl of collagen type II (Chondrex Products, Redmond, Wash.) with 1× supplied buffer. Plates are washed with PBS, 0.05% Tween-20 (PBST) and blocked for 1 hour at room temperature with 100 μl of Protein-Free Blocking Buffer (Pierce, Thermo Scientific). Plates are then washed with PBST and tapped dry. 50 μL, of protein in a dilution series is added to the wells and incubated for 1 hour at room temperature. The protein dilution series starts from 100 μM and includes ten additional three-fold dilutions in PBS and one blank (PBS). After plates are washed in PBS, 50 μL, of anti-human IGF-1 (Abcam) at 1:250 in PBST is added and plates are incubated for 1 hour rotating at room temperature. The plates are then washed with PBST and 100 μL, of 1:1000 anti-Rabbit-HRP (Cell Signaling Technology) in PBST for 1 hour at room temperature. […] The absorbance is measured at 450 nm and the resulting data is analyzed using GraphPad Prism®.
The binding of two anticipated type II collagen binding fusion proteins, GF-Fus5 (6x-Histidine-tagged) and GF-Fus6 (6x-Histidine-tagged) was measured as described above.

Substance	cartilage matrix synthesis (^35S-sulfate incorporation) [1]	binding to collagen type II [2]	cartilage matrix synthesis (^35S-sulfate incorporation) after fusion protein removal ([1]; treatment day 0-4 only, measured at day 8 and day 12, IL-1)
GF-Fus6: IGF-1(LR3) fused to CNA344 CB domain	increase	binding more strongly	–
GF-Fus3: C-terminal fusion IGF-1(LR3)-PRELP heparin binding domain	increase; also recorded: stimulated cartilage matrix biosynthesis	–	highest; also recorded: increased proteoglycan biosynthesis by an equivalent amount; also recorded: largest increase
GF-Fus5: IGF-1(LR3) fused to CNA35 CB domain	increase	bound to collagen type II	–
wtIGF: Wild-type IGF-1 (R&D systems 291-G1), control [reference compound]	increased	–	–
GF-Fus1: IGF-1 variant polypeptide Long [R^3]-IGF-1, no fused binding domain; used 6x-Histidine-tagged as control [reference compound]	increase; also recorded: stimulated cartilage matrix biosynthesis	–	–
